Data set [1] in a line: The drug is tested on Z-011 corresponding to mouse gut metagenome with ENA study accession number: PRJEB37062 and ENA sample accession number: ERS12561811 for biotransformation under anaerobic condition. The drug concentrations were measured over 9 timepoints collected between 0 and 24 hours of incubation by liquid-chromatography-coupled mass spectrometry (LC–MS). To be noted: 2 µM.

Data set [2] can be described thus: The drug is tested on Z-001 corresponding to mouse gut metagenome with ENA study accession number: PRJEB37062 and ENA sample accession number: ERS12561801 for biotransformation under anaerobic condition. The drug concentrations were measured over 9 timepoints collected between 0 and 24 hours of incubation by liquid-chromatography-coupled mass spectrometry (LC–MS). The settings on record: 2 µM.

Data set [3] is described as follows: The drug is tested on Z-018 corresponding to pig gut metagenome with ENA study accession number: PRJEB37062 and ENA sample accession number: ERS12561817 for biotransformation under anaerobic condition. The drug concentrations were measured over 9 timepoints collected between 0 and 24 hours of incubation by liquid-chromatography-coupled mass spectrometry (LC–MS). To be noted: 2 µM.

The conditions of data set [4]: human gut metagenome, 24 h, 2 µM.
For data set [5] the following is noted: human gut metagenome, 24 h, 2 µM. This is another data set of the same source.
A short description of data set [6]: The drug is tested on WLS-220 corresponding to human gut metagenome with ENA study accession number: PRJEB37062 and ENA sample accession number: ERS12561769 for biotransformation under anaerobic condition. The drug concentrations were measured over 9 timepoints collected between 0 and 24 hours of incubation by liquid-chromatography-coupled mass spectrometry (LC–MS). To be noted: 2 µM.

The nature of data set [7]: The drug is tested on WLS-082 corresponding to human gut metagenome with ENA study accession number: PRJEB37062 and ENA sample accession number: ERS12561751 for biotransformation under anaerobic condition. The drug concentrations were measured over 9 timepoints collected between 0 and 24 hours of incubation by liquid-chromatography-coupled mass spectrometry (LC–MS). The settings on record: 2 µM.

A short description of data set [8]: The drug is tested on Z-024 corresponding to pig gut metagenome with ENA study accession number: PRJEB37062 and ENA sample accession number: ERS12561823 for biotransformation under anaerobic condition. The drug concentrations were measured over 9 timepoints collected between 0 and 24 hours of incubation by liquid-chromatography-coupled mass spectrometry (LC–MS). To be noted: 2 µM.

The conditions of data set [9]: human gut metagenome, 24 h, 2 µM. This is another data set of the same source.
The nature of data set [10]: The drug is tested on WLS-052 corresponding to human gut metagenome with ENA study accession number: PRJEB37062 and ENA sample accession number: ERS12561747 for biotransformation under anaerobic condition. The drug concentrations were measured over 9 timepoints collected between 0 and 24 hours of incubation by liquid-chromatography-coupled mass spectrometry (LC–MS). To be noted: 2 µM.

For data set [11] the following is noted: human gut metagenome, 24 h, 2 µM. The source holds these as a separate data set.
Data set [12] in a line: The drug is tested on Z-012 corresponding to metagenome with ENA study accession number: PRJEB37062 and ENA sample accession number: ERS12561812 for biotransformation under anaerobic condition. The drug concentrations were measured over 9 timepoints collected between 0 and 24 hours of incubation by liquid-chromatography-coupled mass spectrometry (LC–MS). To be noted: 2 µM.

A short description of data set [13]: The drug is tested on Z-028 corresponding to mouse gut metagenome with ENA study accession number: PRJEB37062 and ENA sample accession number: ERS12561827 for biotransformation under anaerobic condition. The drug concentrations were measured over 9 timepoints collected between 0 and 24 hours of incubation by liquid-chromatography-coupled mass spectrometry (LC–MS). The settings on record: 2 µM.

The nature of data set [14]: The drug is tested on Z-020 corresponding to rabbit gut metagenome with ENA study accession number: PRJEB37062 and ENA sample accession number: ERS12561819 for biotransformation under anaerobic condition. The drug concentrations were measured over 9 timepoints collected between 0 and 24 hours of incubation by liquid-chromatography-coupled mass spectrometry (LC–MS). The settings on record: 2 µM.

For data set [15] the following is noted: human gut metagenome, 24 h, 2 µM. This is another data set of the same source.
For data set [16] the following is noted: human gut metagenome, 24 h, 2 µM. The source holds these as a separate data set.
Data set [17] can be described thus: The drug is tested on Z-029 corresponding to rat gut metagenome with ENA study accession number: PRJEB37062 and ENA sample accession number: ERS12561828 for biotransformation under anaerobic condition. The drug concentrations were measured over 9 timepoints collected between 0 and 24 hours of incubation by liquid-chromatography-coupled mass spectrometry (LC–MS). To be noted: 2 µM.

For data set [18] the following is noted: human gut metagenome, 24 h, 2 µM. The source holds these as a separate data set.
A short description of data set [19]: The drug is tested on WLS-069 corresponding to human gut metagenome with ENA study accession number: PRJEB37062 and ENA sample accession number: ERS12561748 for biotransformation under anaerobic condition. The drug concentrations were measured over 9 timepoints collected between 0 and 24 hours of incubation by liquid-chromatography-coupled mass spectrometry (LC–MS). The settings on record: 2 µM.

A short description of data set [20]: The drug is tested on WLS-010 corresponding to human gut metagenome with ENA study accession number: PRJEB37062 and ENA sample accession number: ERS12561743 for biotransformation under anaerobic condition. The drug concentrations were measured over 9 timepoints collected between 0 and 24 hours of incubation by liquid-chromatography-coupled mass spectrometry (LC–MS). To be noted: 2 µM.
Further: call rule not given here.

In the case of `CC(C)NCC(O)c1ccc(NS(C)(=O)=O)cc1` (stereo not given) [SOTALOL], the “Bacterial Biotransformation” value in [1], in data set [2], in data set [3], in data set [4], in [5] and in data set [6] was “Compound NOT metabolized” each time. In addition, the “Bacterial Biotransformation” value in [7], in [8], in data set [9], in data set [10], in data set [11] and in data set [12] was “Compound NOT metabolized” throughout. Further, the “Bacterial Biotransformation” value in data set [13], in data set [14], in data set [15], in [16], in data set [17] and in data set [18] was “Compound NOT metabolized” each time. In addition, the “Bacterial Biotransformation” value in data set [19] and in data set [20] was “Compound NOT metabolized” throughout.
With `CCN1CCCC1CNC(=O)c1cc(S(N)(=O)=O)ccc1OC` (stereo not given) [SULPIRIDE], the “Bacterial Biotransformation” value is given as “Compound metabolized” in data set [1]; “Compound metabolized” in data set [2]; “Compound metabolized” in data set [3]; “Compound metabolized” in data set [4]; “Compound NOT metabolized” in data set [5]; “Compound NOT metabolized” in data set [6]. In addition, the “Bacterial Biotransformation” value was “Compound NOT metabolized” in [7]; “Compound NOT metabolized” in [8]; “Compound metabolized” in data set [9]; “Compound NOT metabolized” in data set [10]; “Compound NOT metabolized” in [11]; “Compound NOT metabolized” in data set [12]. For the same compound, the “Bacterial Biotransformation” value is “Compound NOT metabolized” in data set [13]; “Compound NOT metabolized” in data set [14]; “Compound NOT metabolized” in [15]; “Compound metabolized” in data set [16]; “Compound NOT metabolized” in data set [17]; “Compound metabolized” in [18]. Besides, the “Bacterial Biotransformation” value in [19] and in data set [20] was “Compound metabolized” in each case.
For `CNS(=O)(=O)Cc1ccc2[nH]cc(CCN(C)C)c2c1.O=C(O)CCC(=O)O` [SUMATRIPTAN SUCCINATE], the “Bacterial Biotransformation” value in data set [1] was “Compound NOT metabolized”; in [2], “Compound metabolized”; in data set [3], “Compound NOT metabolized”; in data set [4] it was “Compound metabolized”; in data set [5], “Compound NOT metabolized”; in data set [6], “Compound metabolized”. The “Bacterial Biotransformation” value in data set [7] was “Compound NOT metabolized”; in data set [8], “Compound NOT metabolized”; in data set [9] it was “Compound metabolized”; in data set [10], “Compound NOT metabolized”; in data set [11] it was “Compound NOT metabolized”; in data set [12], “Compound NOT metabolized”. The “Bacterial Biotransformation” value in data set [13] is “Compound NOT metabolized”; in data set [14], “Compound NOT metabolized”; in data set [15], “Compound NOT metabolized”; in data set [16] it was “Compound metabolized”; in data set [17], “Compound NOT metabolized”; in data set [18] it was “Compound NOT metabolized”. Further, the “Bacterial Biotransformation” value in data set [19] was “Compound metabolized”; in data set [20], “Compound NOT metabolized”.

For the origin of these results see ChEMBL document CHEMBL5724914, “Linking interpersonal differences in gut microbiota composition and drug biotransformation activity” (2024).
